Values joined by “and” are separate entries in the source; they are usually repeats but may differ in a detail not shown here. Identical values can stand only once.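 Five compound concentrations were applied to cells in 96-well plates for 48 hours; endpoints were derived by simple linear interpolation of the resulting dose-response curve. GI50 marks 50% less growth. TGI denotes the concentration required for complete inhibition of growth.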

In PubChem BioAssay (NCI) one finds TGI and GI50 data, which are given here for 26 molecules.

Assay in all cases: growth of human tumour cells (NCI), 48 h
Assay [1] deals with KM20L2 colon.
For assay [2], the system named is SN12C renal.
Assay [3] has as its system SF-268 CNS.
The test system of assay [4] is OVCAR-8 ovarian.
The subject of assay [5] is EKVX NSCLC.
Assay [6] relates to LXFL 529 NSCLC.
Assay [7] has as its system SK-OV-3 ovarian.
Assay [8] deals with A549 NSCLC.
Assay [9] concerns SNB-75 CNS.
For assay [10], the system named is MDA-MB-231 breast.

Take `O=c1[nH]c2ccccc2cc1C(Cl)=C(Cl)Cl`: the TGI in [1], in [2], in assay [3], in assay [4], in [5] and in assay [6] was more than 100 µM throughout. Further, the TGI in [7], in assay [8] and in [9] was more than 100 µM each time.

Take `O=C1CCCN(c2ccccc2)N1`: the TGI in assay [1], in assay [2], in assay [3], in [4], in assay [5] and in assay [6] was more than 100 µM in each case. Besides, the TGI in [7], in assay [8] and in [9] was more than 100 µM each time.

As for `CCOC(=O)C1(CC)CCCCC(=O)N1` (stereo not drawn), the TGI in assay [1], in [2], in [3], in assay [4], in [5] and in assay [6] was more than 100 µM in each case. Moreover, the TGI in [7] and in assay [8] was more than 100 µM each time.

Regarding `CCOC(=O)CC1=Nc2ccccc2SC1`, the TGI was more than 100 µM in assay [1]; more than 100 µM in [2]; 1.56 µM in assay [3]; more than 100 µM in [4]; more than 100 µM in assay [5]; more than 100 µM in assay [6]. In addition, the TGI in assay [8] and in assay [9] was more than 100 µM each time.

In the case of `Cc1ccc(-c2c(N)nc(NC#N)nc2CCC(=O)Nc2ccccc2[N+](=O)[O-])cc1`, the TGI in assay [1], in assay [2], in assay [3], in [5], in [6] and in assay [7] was more than 100 µM each time. The TGI in [8] and in assay [9] was more than 100 µM in each case.

In the case of `C#CCNC(=O)NC(CCCNC(=O)OCc1ccccc1)C(=O)OCc1ccccc1` (stereo not drawn), the TGI in [1], in assay [2], in assay [3], in assay [4], in assay [5] and in assay [6] was more than 100 µM throughout. Also, the TGI in assay [7], in assay [8] and in [9] was more than 100 µM in each case.

As for `CCCCCCCCCCCCC(=O)OC(c1cnco1)c1nc(C(O)CC(O)C(O)C(C)O)co1` (stereo not drawn), the TGI in assay [1] is more than 48.2 µM; in [2], more than 100 µM; in assay [3] it was more than 47.3 µM; in assay [4], more than 55.7 µM; in [5], more than 100 µM; in assay [6] it was more than 100 µM. The TGI in assay [7] is more than 100 µM; in assay [8], more than 100 µM; in assay [9], 15.9 µM. Besides, the GI50 in assay [2] was 4.09 µM; in [3], 4.56 µM; in assay [4], 0.849 µM; in assay [5] it was 6.56 µM; in assay [7] it was 4.64 µM; in [8], 0.88 µM. In addition, the GI50 in assay [9] was 2.91 µM.

Regarding `O=C1NC(c2ccc(O)cc2)C2CCC1C2` (stereo not drawn), the TGI in assay [1], in assay [2], in [3], in [4], in assay [5] and in [6] was more than 100 µM each time. In addition, the TGI in assay [7], in assay [8] and in assay [9] was more than 100 µM in each case.

With `O=C1NC2(CCCC2)C(=O)C12CCCC2`, the TGI in assay [2], in assay [3], in assay [4], in assay [5], in [6] and in assay [7] was more than 100 µM each time. The TGI in [8] and in [9] was more than 100 µM each time.

Consider `CC(=O)OC1=C2CC3(C)OC(=O)CC(C)(C)C3=CC=C2C=C(C(C)C)C1=O` (stereo not drawn), for which the TGI in [1] was 3.38 µM; in assay [2], 2 µM; in [3], 2.4 µM; in assay [4], 0.779 µM; in assay [5] it was 3.57 µM; in [6] it was 0.299 µM. In addition, the results for the TGI in [7], in assay [8] and in assay [9] were 3.54 µM, 3.78 µM and 1.99 µM, respectively.

`CCOC(=O)C1=C(C)Nc2ccccc2S1`: the TGI in [1], in assay [2], in assay [3], in [5], in [6] and in assay [7] was more than 100 µM each time. Further, the TGI in [8] and in assay [9] was more than 100 µM throughout.

With `C=CCSC[C@H](NC(=O)COc1ccccc1)C(=O)NC(C(=O)OCc1ccc([N+](=O)[O-])cc1)=C(C)C`, the TGI in [1], in assay [2], in assay [3], in [4], in assay [5] and in assay [6] was more than 100 µM throughout. In addition, the TGI in assay [7], in [8] and in assay [9] was more than 100 µM in each case.

Consider `COC(=O)C(C#N)=C1c2ccccc2Oc2ccccc21`, for which the TGI is more than 100 µM in [1]; more than 100 µM in [2]; more than 100 µM in [3]; more than 100 µM in assay [4]; more than 100 µM in [5]; 94.8 µM in assay [6]. Further, the TGI in assay [7], in assay [8] and in assay [9] was more than 100 µM in each case.

`FC(F)(F)c1nc(-c2ccccc2Cl)[nH]c1C(F)(F)F`: the TGI in assay [1] was 3.44 µM; in [2] it was 3.14 µM; in assay [3], more than 29.5 µM; in assay [4] it was 6.14 µM; in assay [5], 2.25 µM; in assay [6], 3.73 µM. In addition, the TGI stood at 2.45 µM in assay [7], 3.06 µM in assay [8] and 5 µM in assay [9].

For `C1COCCN1.C1COCCN1.N.N.[Cl-].[Pt+2]`, the GI50 in [1], in assay [2], in assay [4], in [5], in assay [6] and in [8] was more than 100 µM in each case. Besides, in assay [9], the GI50 is more than 100 µM. Also, the TGI in assay [1], in [2], in [4], in assay [5], in assay [6] and in assay [8] was more than 100 µM throughout. This molecule also yielded a TGI in [9] of more than 100 µM.

Consider `CC(=O)[CH-]C(=O)c1ccccc1.CC(=O)[CH-]C(=O)c1ccccc1.CCCCCCCCCCCCCCCCCC(=O)[O-].CCCCCCCCCCCCCCCCCC(=O)[O-].[Ti+4]`, for which the GI50 is 33.9 µM in assay [1]; 29.9 µM in assay [2]; 21.6 µM in assay [3]; 22.6 µM in assay [4]; 74.2 µM in [5]; 18 µM in assay [6]. In addition, the GI50 in assay [7] is 21.9 µM; in assay [8], 19 µM; in assay [9] it was 11.7 µM. Besides, the TGI was more than 100 µM in [1]; 73.5 µM in assay [2]; 47.6 µM in [3]; 48.3 µM in assay [4]; more than 100 µM in [5]; 34.6 µM in [6]. Moreover, the TGI in assay [7] amounted to 37.9 µM; in [8], 37.3 µM; in assay [9] it was 25.5 µM.

On to `COc1ccc2cc1Oc1ccc(cc1)C[C@H]1c3cc(c(OC)cc3CCN1C)Oc1c(OC)c(OC)cc3c1[C@H](C2)N(C)CC3`, for which the GI50 is 2.19 µM in assay [10]; 12.6 µM in [3]; 6.53 µM in assay [4]; 17.6 µM in assay [7]; 2.77 µM in [9]. The TGI in assay [1] was 10.7 µM; in assay [3] it was 16.5 µM and 25.1 µM and > 100 µM; in [4], 16.3 µM and 19.2 µM and > 100 µM; in assay [7], 15.3 µM and 34 µM and > 100 µM; in [9], 13.4 µM and 10.3 µM and > 100 µM.

With `CSC1=NC=CCN1C`, the TGI in assay [1], in [2], in [3], in assay [4], in [5] and in [6] was more than 100 µM throughout. Also, the TGI in assay [7], in assay [8] and in assay [9] was more than 100 µM each time.

As to `COc1cc2c(c3c1C=CCO3)C(=O)c1ccccc1C2=O`, the TGI in assay [1], in assay [2], in assay [3], in assay [4], in assay [5] and in assay [6] was more than 100 µM each time. The TGI in assay [7], in assay [8] and in assay [9] was more than 100 µM each time.

As for `Cn1cc(NC(=O)c2cc(NC(=O)CCCCCCCCCCC(=O)Nc3cc(C(=O)Nc4cc(C(=O)NCCC(=N)N)n(C)c4)n(C)c3)cn2C)cc1C(=O)NCCC(=N)N`, the TGI in [1] was more than 100 µM; in assay [2], more than 100 µM; in assay [3] it was more than 100 µM; in [4] it was 53.5 µM; in [5] it was 90.2 µM; in assay [6], more than 100 µM. For the same molecule, the TGI in assay [7], in assay [8] and in [9] was more than 100 µM each time.

For the molecule `COC1O[C@H]2CCN(C(=O)OCc3ccccc3)[C@H]2[C@H]1OCc1ccccc1` (stereo partly drawn), the TGI in assay [1], in assay [2], in [3], in assay [4], in [5] and in assay [6] was more than 100 µM each time. Moreover, the TGI was 55.3 µM in assay [7], more than 100 µM in assay [8] and more than 100 µM in [9].

With `O=c1cc(-c2cccc(F)c2)[nH]c2cc3c(cc12)OCO3`, the TGI is 1.03 µM in assay [10]; 75 µM and 23.3 µM in assay [2]; 75 µM and > 58.1 µM in assay [3]; 5.02 µM and 1.55 µM in assay [4]; more than 100 µM in assay [5]; 75 µM in assay [6]. The TGI was 1.01 µM and 1.03 µM in [7]; 21.9 µM and 40.9 µM in [8]. Also, the GI50 in assay [2] was 0.411 µM; in [3], 0.658 µM; in assay [4] it was 0.286 µM; in assay [7] it was 0.265 µM; in [8], 0.498 µM.

In the case of `Cc1cc2c(cc1C)[n+](=O)c(C(=O)C/C(=N/NC(=O)c1ccccc1O)C(=O)Nc1ccccc1C(C)C)c(C)n2[O-]`, the TGI in [1], in [2], in assay [3], in [4], in assay [5] and in [6] was more than 100 µM each time. Moreover, the TGI in [7], in assay [8] and in [9] was more than 100 µM in each case.

Consider `O=[N+]([O-])[C@@H]1C2C=CC(C2)[C@H]1Cl` (stereo partly drawn), for which the TGI in assay [2], in [3], in assay [4], in [5], in assay [6] and in assay [7] was more than 100 µM in each case. Also, the TGI in assay [8] and in assay [9] was more than 100 µM throughout.

In the case of `CN1CCN(Cc2ccc(C(=O)Nc3cncc(C#Cc4cnc(N)c5ccccc45)c3)cc2C(F)(F)F)CC1`, the GI50 in [10] is 1.37 µM; in [2] it was 1.8 µM; in [3], 4.42 µM; in assay [4] it was 2.32 µM; in assay [5] it was 1.99 µM; in assay [7], 10.8 µM. The GI50 in [8] was 1.94 µM; in assay [9], 3.42 µM. In addition, the TGI in [10] was found to be 2.87 µM; in [2], 3.47 µM; in [3], 17.2 µM; in assay [4], 5.38 µM; in assay [5], 6.06 µM; in assay [7] it was 22.9 µM. The TGI was found to be 3.85 µM in [8] and 12.3 µM in [9].

In the case of `CCn1c(-c2nonc2N)nc2c(C#CCN)ncc(OCCCN)c21`, the GI50 in assay [10], in assay [2], in assay [3], in [4], in assay [5] and in assay [7] was more than 25 µM throughout. Also, the values for the GI50 in [8] and in assay [9] were more than 25 µM and more than 24.2 µM, respectively. Further, the TGI in assay [10], in assay [2], in assay [3], in assay [4], in assay [5] and in assay [7] was more than 25 µM in each case. Besides, the TGI in assay [8] and in assay [9] was more than 25 µM each time.
